Values of other authors as cited in US6869615B2, “Pharmaceutical formulations containing a non-steroidal antiinflammatory drug and a proton pump inhibitor” (Andrx Labs LLC, priority 2000, dated 2005).

Compound | patients with side effects that require cessation of medication (NSAIDs such as diclofenac) | patients who experience gross bleeding and ulceration (chronic use, Langman et al, Lancet 1994)
O=C(O)Cc1ccccc1Nc1c(Cl)cccc1Cl [diclofenac] | about 20% | 
CN1C(C(=O)Nc2ccccn2)=C(O)c2ccccc2S1(=O)=O [piroxicam] |  | up to 4%
